Data from US11524956B2, “Alkyne substituted quinazoline compound and methods of use” (Newgen Therapeutics, Inc., priority 2011, dated 2022).
Entries after “also recorded” stand apart in the source; their conditions may differ.

Key:
EGFR kinase = EGFR kinase (Homo sapiens (Human), UniProt P00533); assay: Kinase assay for EGFR (TR-FRET, LanthaScreen); format: biochemical; settings: read-out: Kinase inhibition IC50 (nM) EGFR
Protocol: The extent to which the compounds of the present invention modulate EGFR kinase activity can be determined using time-resolved Fret (TR-FRET) assay (LanthaScreen® kinase activity assay, from InVitrogen). The assay employs EGFR kinase (PV3872, Invitrogen), Tb-Py20 antibody (PV3552, InVitrogen) and fluorescein-poly GT (PV3610, InVitrogen).
The assay is performed in a Black 384-well plate (available from Corning). EGFR kinase (is diluted in TR-FRET Dilution Buffer (PV3189, InVitrogen) at concentration of 0.4 ug/ml as stock solution, and then 2-fold serial diluted. Addition of 1 mM ATP initiated the reaction, and the reaction is incubated for […] at room temperature. 10 μL of the Tb-antibody (from InVitrogen)+EDTA (from InVitrogen) solution prepared was added to each well of the assay plate and mix briefly, and incubated for 30 min. The signal is monitored by using M5 microplate reader (Ex=332 nm, Em=488 nm and 518 nm). Each compound is tested in duplicate wells. EGFR without compound is used as control. Staurosporine (available from Sigma) is used as positive control compound. Inhibition was calculated as percentage of the EGFR activity (without compound).

BT474 cells = assay: Cell proliferation inhibition assay for BT474 (CCK-8); format: cell-based; settings: Homo sapiens, BT-474; 72h
Protocol: Human breast cancer BT474 cells was cultured in low glucose DMEM (Life Technologies 12320-032) containing 10% fetal bovine serum (FBS) at 37° C. in a humidified 10% CO2, 90% air incubator. Cells were harvested using trypsin EDTA, counted using a haemocytometer, and plated 10000 cell/well in a 96-well clear tissue culture plate. The cells were incubated for 24 h at 37° C. to allow adherence. A serials of concentrations of each compound (ranging from 30 um to 0.16 nM, 5-fold dilution) in 96-well plate, and incubated for 72h. Each concentration was tested in triplicate wells. During the cell proliferation assay, BT474 cells were cultured in low-glucose DMEM containing 5% FBS, 50 ug/ml gentamicin, and 0.3% v/v DMSO. The culture medium was removed via aspiration, and the cell viability was detected by using CCK-8 cell proliferation kit. The IC50 value measured for each compound in Examples 1 to 7 is <100 nM.

ErbB2 kinase protein = ErbB2 kinase protein (Homo sapiens (Human), UniProt P04626); assay: Kinase assay for ErbB2; format: biochemical; settings: read-out: Kinase inhibition IC50 (nM) ErbB2
Protocol: The assay is performed similarly to the kinase assay for […] as described above, except ErbB2 kinase protein is used instead of EGFR kinase protein.

NCI-N87 xenograft = assay: In vivo efficacy in NCI-N87 xenograft mouse model; settings: 80 mg/kg p.o. bid
Protocol: NCI-N87 cell line was purchased from ATCC (American Type Culture Collection) and was cultured in RPMI1640+10% FBS+1% P/S antibiotics.
Male Balb/c nude mice, 6-8 week, 18±2 g (supplier: Shanghai SLAC Laboratory Animal Co. Ltd.) were used for the experiment. The purchased mice were adapted to the environment for 7 days before use, and were housed at 22-25° C. with humidity 40-70%, and light cycle with fluorescent light for 12-hour light (8:00-20:00) 12-hour dark. The mice have free access to food and water.
The cancer cells (NCI-N87) were implanted subcutaneous into the nude mice (right flank) with 5.0×10^6 cells in 0.1 ml PBS (50 mice). When the tumor size reaches a volume of 200 (150-200) mm^3, the tumor-bearing nude mice were randomly assigned into groups (10 mice/group), one group was served as vehicle, one group was administrated with Lapatinib ditosylate monohydrate (80 mg/kg, free base of Lapatinib, not salt, p.o. […]). The other two groups were administrated with NT113 (also referred to as KID 113) ((15 and 30 mg/kg, p.o.q.d, respectively). The administration period lasted for 4 weeks.
The mice were monitored twice daily for appearance and behavior, and for signs of morbidity and/or mortality. The tumor volume was measured twice a week, and the body weight was measured immediately before measuring the tumor volume throughout the whole study.
At end of the experiment (compound administration for four weeks), all the tumor-bearing mice were sacrificed by cervical dislocation under deep anesthesia. The tumor mass was resected, and weighed.
Tumor sizes were measured twice weekly in two dimensions using a caliper, and the volume was expressed in mm^3 using the formula: V=½×a×b^2 where a and b are the long and short diameters of the tumor, respectively. The tumor mass was weighed at the end of the experiment after harvested.
V=½×a×b^2 (a, h is maximum and minimum diameters respectively).
RTV (Relative Tumor Volume)=Vt/Vo • Vo is the tumor volume when the test article is initial administrated • Vt is the tumor volume of every measurement day after test article administration
T/C (%)=TRTV/CRTV×100% • TRTV: RTV of test article-treatment group; CRTV: RTV of control group Inhibition rate (%)=(average tumor volume of control group average cancer volume of test article treatment group)/average tumor volume of control group×100%
The tumor-bearing mice were treated for 4 weeks with different doses of KU (15 mg/kg, 30 mg/kg, […]), qd) and Lapatinib KUA-1, 80 mg/kg, p.o., bid, 7 days/week. At the day-7 after treatment, the RTV TIC KU113 (15 mg/kg, 30 mg/kg) groups were <30%, and the tumor growth inhibition was >70%. but the RTV TIC was 31% and tumor growth inhibition rat was 69% in the lapatinib group. The same result was observed as well when it comes to the tumor weight. On day 28 after treatment, all the tumor-bearing mice were sacrificed, and all the tumor masses were harvested to weigh.

[1] = Rat pharmacokinetics studies (plasma); format: in vivo, Sprague Dawley rats; settings: rat
Protocol: Sample preparation: The test article each was dissolved in 10% DMSO and 90% of (40% HP-β-CD in deionized water) to yield concentration at 2 mg/mL for intravenous and oral administration.
Method development and plasma samples analysis were performed by Analytical Sciences Division of the Testing Facility by means of LC-MS/MS. The analytical results were confirmed using quality control samples for intra-assay variation (within day variation). The accuracy of >66% of the quality control samples was between 80-120% of the known value(s).
Each group consisted of 3 male Sprague Dawley rats (7-8 week old, 200-300 g body weight). The test articles were administered by a single bolus intravenous injection via the lateral tail vein or via oral gavage.
Blood samples (approximately 300 μl) were collected via retro-orbital puncture after anaesthesia using mixed gas (CO2:O2=7:3) into tubes containing EDTA-K3 anticoagulant at appropriate time points. 10 time points (Groups 1-2): Pre-dose and post-dose at 5 min, 15 min, 30 min, 1 h, 2 h, 4 h, 6 h, 8 h and 24 h.
Analysis: The PK blood samples were centrifuged at approximately 8000 rpm for (3 minutes at 2-8° C. and the resulting plasma were separated and stored frozen at approximately −80° C. (following separation, the plasma may be initially placed on ice prior to being stored in the −80° C. freezer). All the plasma samples were labeled with detailed information such as study number, animal number, matrix, time points of collection and date of collection.
Standard set of parameters including Area Under the Curve (AUC(0-t) and AUC(0-∞)), elimination half-live (T1/2), maximum plasma concentration (Cmax), time to reach maximum plasma concentration (Tmax), clearance (CL), and volume of distribution (Vz) will be calculated using noncompartmental analysis modules in FDA certified pharmacokinetic program WinNonlin Professional v5.2 (Pharsight, USA) by the Study Director. Furthermore, the Bioavailability will be estimated using the following formula:
• AUC(0-t) Area under the curve from the time of dosing to the last measurable concentration • AUC(0-∞) Area under the curve from the time of dosing extrapolated to infinity, based on the last observed concentration • CL Total body clearance, CL=Dose/AUC • Cmax Maximum observed concentration, occurring at Tmax • F Bioavailability • MRT(0-∞) Mean residence time from the time of dosing to infinity • Tmax Time of maximum observed concentration • T1/2 Terminal half-life=In(2)/λz • Vz Volume of distribution based on the terminal phase

Rat brain concentration = format: in vivo, Sprague Dawley rats; settings: predetermined time points
Protocol: Brain concentration: Three rats are for brain collection (2h) only. Three rats are for brain collection (4 h) only. The rest 3 rats are for plasma (9 time points) and brain collection (24h).
Brain Collection and Tissue Processing: Post blood collection, the brain was first perfused intracardially with ˜150 mL of ice-cold, 0.1 M Phosphate Buffered Saline (PBS) at pH7.4. Then, the dura was removed before weighing the brain. The brain was then dissected into smaller pieces, rinsed twice with ˜10 mL PBS, and then flash frozen on dry ice, and stored at −80° C. before analysis.
Before tissue processing, rat brains were thawed. For the preparation of analytical standards, purchased frozen rat brains (from Pelfreez) were similarly thawed, dissected, rinsed with PBS, and 100 μL of Compound A stock solution (at 500 ng/mL and 1, 2 5, 10, and 50 μg/mL in acetonitrile) was spiked directly into the tissue. Both Compound A dosed and spiked brains then underwent the same processing procedures described below.
Briefly, 2 mL of water was added to each brain before homogenization. Homogenize the brain in 2 to 3 sessions, each approximately 15 sec. The mechanical probe of the homogenizer was cleansed in water, 70% ethanol, and ethyl acetate after each sample. The resulting brain homogenates were then extracted with ethyl acetate three times (14 mL total), and centrifuged to separate the aqueous and organic phases after each extraction. Per brain, pooled organic phase were evaporated under a stream of nitrogen at 40° C. and the residues were reconstituted with 4 mL of mobile phase B. Compound A spiked brain samples in the 4 mL solutions had final concentrations of 12.5, 25, 50, 125, 250, 1250 ng/mL. The reconstituted samples were incubated for ˜15 minutes at 60° C. and, vortexed for 10 minutes to fully dissolve the analytes. The samples were centrifuged, and then further diluted with Mobile phase B (shown below) before LC/MS/MS analysis. Dilute 20 μL of reconstituted samples with 1.5 mL mobile phase B. Transfer and inject supernatant to […] system for analysis.

Chain of EGFR kinase (P00533 668-1210): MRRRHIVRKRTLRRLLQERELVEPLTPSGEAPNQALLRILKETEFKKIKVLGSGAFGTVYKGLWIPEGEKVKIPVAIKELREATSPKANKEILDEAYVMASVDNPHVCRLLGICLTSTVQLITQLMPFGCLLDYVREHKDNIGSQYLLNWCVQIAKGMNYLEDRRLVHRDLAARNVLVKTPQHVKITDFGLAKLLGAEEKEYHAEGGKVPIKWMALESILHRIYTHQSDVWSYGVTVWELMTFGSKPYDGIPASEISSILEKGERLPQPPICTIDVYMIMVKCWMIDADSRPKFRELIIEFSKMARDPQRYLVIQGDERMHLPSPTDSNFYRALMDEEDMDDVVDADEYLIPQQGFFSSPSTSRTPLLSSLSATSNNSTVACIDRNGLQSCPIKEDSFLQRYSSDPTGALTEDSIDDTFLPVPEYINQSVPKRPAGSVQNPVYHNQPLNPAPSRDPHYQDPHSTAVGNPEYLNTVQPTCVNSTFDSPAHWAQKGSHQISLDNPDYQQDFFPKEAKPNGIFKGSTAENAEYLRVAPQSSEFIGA
Chain of ErbB2 kinase protein (P04626 23-1255): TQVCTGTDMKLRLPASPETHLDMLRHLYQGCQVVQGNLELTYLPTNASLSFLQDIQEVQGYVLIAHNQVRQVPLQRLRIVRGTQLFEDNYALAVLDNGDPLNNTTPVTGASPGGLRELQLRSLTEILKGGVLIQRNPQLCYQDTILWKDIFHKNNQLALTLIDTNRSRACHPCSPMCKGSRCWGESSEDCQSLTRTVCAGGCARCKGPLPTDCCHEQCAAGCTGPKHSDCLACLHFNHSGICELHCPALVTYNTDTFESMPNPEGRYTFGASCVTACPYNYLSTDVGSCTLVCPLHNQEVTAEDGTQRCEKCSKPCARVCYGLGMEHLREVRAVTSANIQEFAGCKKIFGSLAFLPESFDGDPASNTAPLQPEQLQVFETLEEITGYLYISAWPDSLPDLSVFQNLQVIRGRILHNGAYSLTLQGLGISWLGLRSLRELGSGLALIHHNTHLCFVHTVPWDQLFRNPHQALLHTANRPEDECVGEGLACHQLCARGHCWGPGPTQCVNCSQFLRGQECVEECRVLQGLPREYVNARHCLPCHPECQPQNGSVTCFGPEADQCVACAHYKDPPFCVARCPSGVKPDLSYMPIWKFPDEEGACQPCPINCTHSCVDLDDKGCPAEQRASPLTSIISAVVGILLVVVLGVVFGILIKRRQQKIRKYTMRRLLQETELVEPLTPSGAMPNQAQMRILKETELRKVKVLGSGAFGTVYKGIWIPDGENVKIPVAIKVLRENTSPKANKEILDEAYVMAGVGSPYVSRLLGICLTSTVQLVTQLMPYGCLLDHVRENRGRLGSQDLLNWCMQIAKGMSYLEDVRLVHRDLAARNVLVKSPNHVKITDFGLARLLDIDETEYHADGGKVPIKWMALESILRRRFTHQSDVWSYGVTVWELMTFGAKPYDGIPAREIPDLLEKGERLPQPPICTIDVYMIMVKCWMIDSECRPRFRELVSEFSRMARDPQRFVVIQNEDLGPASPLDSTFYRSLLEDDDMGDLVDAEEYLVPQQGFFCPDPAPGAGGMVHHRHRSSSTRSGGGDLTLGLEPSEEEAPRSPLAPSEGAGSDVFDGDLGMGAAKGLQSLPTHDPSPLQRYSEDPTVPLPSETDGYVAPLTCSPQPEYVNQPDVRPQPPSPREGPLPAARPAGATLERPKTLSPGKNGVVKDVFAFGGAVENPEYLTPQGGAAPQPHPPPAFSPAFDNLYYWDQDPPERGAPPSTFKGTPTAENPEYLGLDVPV

Row | Compound | IC50 (EGFR kinase) | IC50 (BT474 cells) | IC50 (ErbB2 kinase protein) | also measured
1 | CN(C)C/C=C/C(=O)Nc1cc2c(Nc3ccc(F)c(Cl)c3)ncnc2cc1C#CC1CCOC1 (stereo not shown) [Example 1, (E)-N-(4-(3-chloro-4-fluorophenylamino)-7-(2-(tetrahydrofuran-3-yl)ethynyl)quinazolin-6-yl)-4-(dimethylamino)but-2-enamide] | < 100 nM | < 100 nM | < 100 nM | 
2 | CN(C)C/C=C/C(=O)Nc1cc2c(Nc3ccc(F)c(Cl)c3)ncnc2cc1C#C[C@@H]1CCCO1 [Example 2, (E)-N-(4-(3-chloro-4-fluorophenylamino)-7-(2-((S)-tetrahydrofuran-2-yl)ethynyl)quinazolin-6-yl)-4-(dimethylamino)but-2-enamide] | < 100 nM | < 100 nM | < 100 nM | 
3 | CN(C)C/C=C/C(=O)Nc1cc2c(Nc3ccc(F)c(Cl)c3)ncnc2cc1C#C[C@H]1CCCO1 [Example 3, (E)-N-(4-(3-chloro-4-fluorophenylamino)-7-(2-((R)-tetrahydrofuran-2-yl)ethynyl)quinazolin-6-yl)-4-(dimethylamino)but-2-enamide] | < 100 nM | < 100 nM | < 100 nM | 
4 | CN(C)C/C=C/C(=O)Nc1cc2c(Nc3ccc(F)c(Cl)c3)ncnc2cc1C#CC12COCC1C2 (stereo not shown) [Example 5, (E)-N-(4-(3-chloro-4-fluorophenylamino)-7-(2-(3-oxa-bicyclo[3.1.0]hexan-1-yl)ethynyl)quinazolin-6-yl)-4-(dimethylamino)but-2-enamide] | < 100 nM | < 100 nM | < 100 nM | 
5 | CN(C)C/C=C/C(=O)Nc1cc2c(Nc3ccc(F)c(Cl)c3)ncnc2cc1C#C[C@]12COC[C@H]1C2 [Example 6, (E)-N-(4-(3-chloro-4-fluorophenylamino)-7-(2-((1R,5S)-3-oxa-bicyclo[3.1.0]hexan-1-yl)ethynyl)quinazolin-6-yl)-4-(dimethylamino)but-2-enamide] | < 100 nM | < 100 nM | < 100 nM | 
6 | CN(C)C/C=C/C(=O)Nc1cc2c(Nc3ccc(F)c(Cl)c3)ncnc2cc1C#C[C@@]12COC[C@@H]1C2 [Example 7, (E)-N-(4-(3-chloro-4-fluorophenylamino)-7-(2-((1S,5R)-3-oxa-bicyclo[3.1.0]hexan-1-yl)ethynyl)quinazolin-6-yl)-4-(dimethylamino)but-2-enamide] | < 100 nM | < 100 nM | < 100 nM | 
7 | CS(=O)(=O)CCNCc1ccc(-c2ccc3ncnc(Nc4ccc(OCc5cccc(F)c5)c(Cl)c4)c3c2)o1 [Lapatinib, reference compound] |  |  |  | tumor inhibition rate (NCI-N87 xenograft; day 28 (last day of the study)): 92.9%; RTV T/C (NCI-N87 xenograft; day-7 after treatment): 31%; tumor growth inhibition rate (NCI-N87 xenograft; day-7 after treatment): 69%
8 | CN(C)C/C=C/C(=O)Nc1cc2c(Nc3ccc(F)c(Cl)c3)ncnc2cc1O[C@H]1CCOC1 [afatinib, reference compound] |  |  |  | rat PK (qualitative) [1]: poor PK; Kp (Rat brain concentration; Sprague Dawley, brain/plasma, read-out: Brain/plasma concentration ratio): < 0.05; brain concentration (Rat brain concentration): < 1 ng/g; brain concentration (detectability) (Rat brain concentration): no detectable brain concentration; also recorded: below detection limit
